Tests used:
A549 cells = conditions: cited from earlier work
[1] = Potency comparison of separated enantiomers (test not specified); conditions: (R)- versus (S)-enantiomer separated on Chiralpak AD
Protocol: An enriched 3:1 R:S mixture of chromenone enantiomers was separated into its pure enantiomers by chiral chromatography with the following conditions: Column—Chiralpak AD, 250×4.6 mm (Diacel Inc.). Sample—22.5 mg/ml in 1:1 i-PrOH:hexanes. Conditions—40 min at isocratic 50% i-PrOH in Hexanes, (S)-enantiomer elutes at 18.35 min, (R)-enantiomer elutes at 26.87 min.

SMILES | GI50 (A549 cells) | relative potency of enantiomers [1]
COc1cccc2c1C(=O)c1c(O)c3c(c(O)c1C2=O)C[C@@](O)(C(=O)CO)C[C@@H]3O[C@H]1C[C@H](N)[C@H](O)[C@H](C)O1 [doxorubicin] | 63 nM | –
Cc1ccc(C(=O)N(CCCN)[C@@H](c2oc3cc(Cl)ccc3c(=O)c2Cc2ccccc2)C(C)C)cc1 (single isomer, unassigned) [Example 2 (R)-enantiomer] | – | significantly more potent than the (S)-enantiomer
O=c1[nH]cc(F)c(=O)[nH]1 [5-fluorouracil] | 1000 nM | –
NC(=O)NO [hydroxyurea] | 500000 nM | –
CC(=O)O[C@H]1C(=O)[C@@]2(C)[C@H]([C@H](OC(=O)c3ccccc3)[C@]3(O)C[C@H](OC(=O)[C@H](O)[C@@H](NC(=O)c4ccccc4)c4ccccc4)C(C)=C1C3(C)C)[C@]1(OC(C)=O)CO[C@@H]1C[C@@H]2O [paclitaxel] | 4 nM | –

Reference: patent US8633236B2, “Compounds, compositions and methods” (Cytokinetics, Inc., priority 2002, dated 2014)
